Measured values as given in patent US6265438A, “Vitamin compatible micronutrient supplement” (Heritage Technologies, LLC, priority 1999, dated 2001).
Like-named read-outs stand apart in the source and are kept apart here.

Columns and labels:
[1] = Chick feeding trial: feed intake, body weight, bone ash; format: in vivo; details: chicks fed 3 weeks
Method: Feed intake was recorded per pen.
Relative bioavailability estimates were calculated using slope ratios.

[2] = in vivo
Method: Chicks were fed the respective basal diets for 21 days. There were six pens each containing six chicks (three male and three female) for each of eight dietary treatments, for a total of 288 birds. Chicks were housed in two Petersime brooder units with stainless steel fittings and maintained on a 24-hour constant light schedule. Tap water containing no detectable zinc and feed were available ad libitum. Feed intake was recorded per pen. At the end of the experiment, birds were weighed individually, killed by cervical dislocation, and right tibia removed and frozen individually for zinc analysis.
Zinc concentrations in basal diet, water, zinc sources, and tibias were determined by flame atomic absorption spectrophotometry (Model 5000 with an AS-50 autosampler, Perkin-Elmer, Norwalk Conn. 06859-0156, Anonymous, 1982. Analytical Methods for Atomic Absorption Spectrophotometry. Perkin-Elmer Corp., Norwalk, Conn.). Diet samples were dried at 105° C. for 12 hours, then were dry ashed at 550° C. for 12 hours, solubilized in HCl, and filtered through 42 Whatman paper. Bones were boiled for approximately 10 minutes in deionized water and cleaned of all soft tissue. Tibias with associated cartilages were dried for 12 hours at 105° C., extracted in a Soxhlet apparatus with petroleum ether for 48 hours prior to ashing, and then solubilized as indicated above. Water was concentrated 10-fold by evaporation on a hotplate. Zinc sources were refluxed for 4 hours in 1:1 (v:v) concentrated HCl--HNO3 and filtered through 42 Whatman paper. Standards were matched for macroelement and acid concentrations as needed.
Data were analyzed by two-way ANOVA with a model that included zinc source, dietary zinc concentration, and their interaction. Each of the six pens were used as experimental units. Body weight, feed intake, and percentage of bone ash were also analyzed by the General Linear Models (GLM) (SAS Institute, 1990. SAS/STAT User's Guide (Release 6.04) SAS Institute Inc., Cary, N.C.) with an LSMEANS statement and PDIFF option to compare treatment means. Multiple linear regression of bone zinc concentration on added dietary zinc concentration was calculated using GLM. Relative bioavailability estimates were calculated using slope ratios.

[3] = Hygroscopicity (weight gain in 90% humidity); format: physicochemical; details: 140 hr
Method: Tribasic zinc sulfate can be prepared in a reaction system depicted in FIG. 1. Initially the reactor vessel contained 100 ml of dionized water.
Initially the reactor vessel contained 100 ml of an aqueous solution of ammonium sulfate (400 g/l).

[4] = Sandoval et al. (1997), similar sample, cited from earlier work
Water solubility = format: physicochemical
[5] = 98 ° F., about 3 months, 131400 min, cited from earlier work
E. coli = assay: Effect of zinc compounds on bacteria (colony count); format: cell-based, DMV strain; details: each of the bacteria tested
Method: (§1) A series of 42 test tubes were filled with 7 ml of distilled water, and the pH of the water was adjusted to a pH of 7. Fourteen tubes were selected, and 1 ml of an aqueous stock solution containing DMV (DelMarVa-Delaware, Maryland, Virginia source) strain of E. coli was added to each of the 14 tubes. A second set of 14 tubes was selected. To each tube in this second set was added 1 ml stock solution containing a DMV strain of salmonella. A third set of 14 tubes was then selected, and to each these tubes was added 1 ml of a stock solution containing a DMV strain of camplobacter.
(§2) Two tubes from each of the three sets served as controls, and no zinc compounds were added to these controls. […] The pH of half of the tubes from each set was adjusted to a pH of 2 by the addition of concentrated HCl; the pH of the other half of the tubes was maintained at a pH of 7. Sufficient water was added to each tube to provide a final volume of 10 ml. All the tubes were placed in an incubator that was maintained at 37° C. for three hours.
(§3) After three hours, 0.20 ml was taken from each of the tubes, of which 0.1 ml was used to inoculate a MacConley Ager plate and 0.1 ml was used to inoculate a Blood Ager plate. […] After 24 hours, each late was examined and the number of colonies on each plate was evaluated.

Salmonella = assay: as above; format: cell-based, DMV strain; details: each of the bacteria tested
Method: as §1, §2, §3

Camplobacter = assay: as above; format: cell-based, DMV strain; details: each of the bacteria tested

Row | Compound | Body Weight ([1]; added Zn 200 ppm) | Bone Ash ([1]; added Zn 200 ppm) | Feed Intake ([1]; added Zn 200 ppm) | Body Weight ([1]; added Zn 400 ppm) | Bone Ash ([1]; added Zn 400 ppm) | Feed Intake ([1]; added Zn 400 ppm) | Bioavailability of zinc (in words) [2] | Slope ± SE (regression of bone zinc concentration on added dietary zinc concentration) [2] | Hygroscopicity [3] | other results
1 | basic zinc chloride | 592 g | 45.1 ash wt % | 724 g/bird | 563 g | 43.6 ash wt % | 652 g/bird | equal to that of reagent grade zinc sulfate | 0.1273 ± 0.0316 | – | –
2 | O.O.O.O.O.O=S(=O)([O-])[O-].[Cu+2] [copper sulfate pentahydrate] | – | – | – | – | – | – | – | – | 14.4 % weight gain | –
3 | [O]=[Zn] [zinc oxide] | – | – | – | 588 g | 44.4 ash wt % | 709 g/bird | lower (P<0.05) than that for other sources | 0.0584 ± 0.0309 | – | Relative bioavailability value (slope ratio) ([2]; chicken, 30240 min): 49.0±10.1%; Relative value ± SE (slope ratio of bone zinc regression) ([2]; chicken, 30240 min): 49.0 ± 10.1; 95% Confidence Interval of relative value [2]: 28.7-69.2; Solubility in HCl ([4]; 60 min): 99%; Solubility in citric acid ([4]; 60 min): 69%; Solubility in neutral ammonium citrate ([4]; 60 min): 53%; Solubility in water [4]: insoluble
4 | basic zinc sulfate | 585 g | 44.4 ash wt % | 690 g/bird | 599 g | 44.5 ash wt % | 708 g/bird | equal to that of reagent grade zinc sulfate | 0.1200 ± 0.0316 | – | –
5 | tribasic zinc sulfate | – | – | – | – | – | – | – | – | about 4.65 % weight gain | Water solubility (Water solubility): about 15 mg zinc per liter
6 | O=S(=O)([O-])[O-].[Cu+2].[Cu+2].[Cu+2].[Cu+2].[OH-].[OH-].[OH-].[OH-].[OH-].[OH-] [tribasic copper sulfate] | – | – | – | – | – | – | – | – | about 1.73 % weight gain | Water solubility (Water solubility): about 430 mg Cu per liter
7 | O.O.O.O.O.O.O.O=S(=O)([O-])[O-].[Zn+2] [reagent grade zinc sulfate, zinc sulfate heptahydrate, reference compound] | 574 g | 44.2 ash wt % | 710 g/bird | 559 g | 42.8 ash wt % | 679 g/bird | – | 0.1193 ± 0.0316 | 36.1 % weight gain | –
8 | [Cl-].[Cl-].[Zn+2] [reagent grade zinc chloride, zinc chloride] | – | – | – | – | – | – | – | – | 126.5 % weight gain | –
9 | Cc1ncc(CO)c(CO)c1O [pyridoxine] | – | – | – | – | – | – | – | – | – | Loss of pyridoxine activity ([5]; multi-vitamin premixes containing inorganic trace minerals): about 55%; Loss of pyridoxine activity ([5]; premix containing no trace minerals): about 24%
10 | tribasic zinc chloride | – | – | – | – | – | – | – | – | – | Growth rate of bacteria (in words) (E. coli): significantly reduced the growth rate; Growth rate of bacteria (in words) (Salmonella): significantly reduced the growth rate; Growth rate of bacteria (in words) (Camplobacter): significantly reduced the growth rate
